The experiment has as its system P. berghei. Briefly: percentage inhibition of P. berghei (blood parasitaemia) in mice, seven oral doses. In kind it is in vivo. The following applies: Plasmodium berghei, 96 h, parasitaemia on fourth day; for inhibition in vivo at 10 mg/kg: 7 × 10 mg/kg oral; for inhibition in vivo at 100 mg/kg: 7 × 100 mg/kg oral. From the text: Groups of five mice were inoculated intraperitoneally with the normal strain of P. berghei. The mice on test received seven oral doses of drug beginning on the afternoon of the day of infection then twice a day for the following three days. Blood parasitaemias were estimated on the fourth day and compared with those of the untreated controls.
The results are given in Table 1, the results being expressed as percentage inhibition of P. berghei.

Structures can show the parent of a compound that is named as a salt.

On to `CN(C)c1ccccc1SCc1ncon1` [Example 1, 3-(2-Dimethylaminophenylthiomethyl)-1,2,4-oxadiazole], for which the inhibition in vivo (usually the relative decrease from the control value, in per cent) at 10 mg/kg worked out at 65% and the inhibition in vivo at 100 mg/kg was determined as 100%.

Molecule `CN(C)c1ccccc1SCc1noc(-c2ccccc2)n1` [Example 2, 3-(2-Dimethylaminophenylthiomethyl)-5-phenyl-1,2,4-oxadiazole] displayed an inhibition in vivo at 100 mg/kg of 83%.

Regarding `CNc1ccccc1SCc1ncon1` [Example 4, 3-(2-Methylaminophenylthiomethyl)-1,2,4-oxadiazole], the inhibition in vivo at 10 mg/kg was 67% and the inhibition in vivo at 100 mg/kg was 97%.

The molecule `Cc1ccc(SCc2ncon2)c(N)c1` [Example 6, 3-(2-Amino-4-methylphenylthiomethyl)-1,2,4-oxadiazole] came in with an inhibition in vivo at 10 mg/kg of 55% and an inhibition in vivo at 100 mg/kg of 99%.

As to `Cc1ccc(N)c(SCc2ncon2)c1` [Example 7, 3-(2-Amino-5-methylphenylthiomethyl)-1,2,4-oxadiazole], the inhibition in vivo at 10 mg/kg was found to be 46% and 100 mg/kg produced 99% inhibition in vivo.

With `Nc1cc(Cl)ccc1SCc1ncon1` [Example 8, 3-(2-Amino-4-chlorophenylthiomethyl)-1,2,4-oxadiazole], at 10 mg/kg the inhibition in vivo was 89% and the inhibition in vivo at 100 mg/kg was 100%.

In turn, `Nc1cccc(Cl)c1SCc1ncon1` [Example 9, 3-(2-Amino-6-chlorophenylthiomethyl)-1,2,4-oxadiazole] gave an inhibition in vivo at 10 mg/kg of 32% and an inhibition in vivo at 100 mg/kg of 89.6%.

Molecule `Nc1cc(Br)ccc1SCc1ncon1` [Example 10, 3-(2-Amino-4-bromophenylthiomethyl)-1,2,4-oxadiazole] displayed an inhibition in vivo at 10 mg/kg of 85% and an inhibition in vivo at 100 mg/kg of 99%.

Molecule `Nc1ccccc1SCc1noc(-c2ccc(Cl)cc2)n1` [Example 11, 3-(2-Aminophenylthiomethyl)-5-(4-chlorophenyl)-1,2,4-oxadiazole] displayed an inhibition in vivo at 10 mg/kg of 54% and an inhibition in vivo at 100 mg/kg of 99%.

The molecule `Nc1ccccc1SCc1noc(CSc2ccccc2N)n1` [Example 13, 3,5-Di-(2-aminophenylthiomethyl)-1,2,4-oxadiazole] returned an inhibition in vivo at 10 mg/kg of 77%.

Molecule `Nc1ccccc1SCc1noc(-c2ccccc2)n1` [Example 14, 3-(2-Aminophenylthiomethyl)-5-phenyl-1,2,4-oxadiazole] returned an inhibition in vivo at 10 mg/kg of 77% and an inhibition in vivo at 100 mg/kg of 100%.

As to `Cc1nc(CSc2ccccc2N)no1` [Example 15, 3-(2-Aminophenylthiomethyl)-5-methyl-1,2,4-oxadiazole hydrochloride], testing at 10 mg/kg gave an inhibition in vivo of 4% and testing at 100 mg/kg gave an inhibition in vivo of 86%.

In turn, `Nc1cc(F)ccc1SCc1ncon1` [Example 16, 3-(2-Amino-4-fluorophenylthiomethyl)-1,2,4-oxadiazole] gave an inhibition in vivo at 10 mg/kg of 81% and an inhibition in vivo at 100 mg/kg of 100%.

For the molecule `COc1ccc(SCc2ncon2)c(N(C)C)c1` [Example 17, 3-(2-Dimethylamino-4-methoxyphenylthiomethyl)-1,2,4-oxadiazole], at 100 mg/kg the inhibition in vivo was 62%.

In the case of `CN(C)c1cc(Cl)ccc1SCc1ncon1` [Example 18, 3-(4-Chloro-2-dimethylaminophenylthiomethyl)-1,2,4-oxadiazole], the inhibition in vivo at 100 mg/kg amounted to 95%.

For `CCOC(=O)Nc1ccccc1SCc1ncon1` [Example 19, 3-(2-Ethoxycarbonylaminophenylthiomethyl)-1,2,4-oxadiazole], at 10 mg/kg the inhibition in vivo was 52% and the inhibition in vivo at 100 mg/kg was determined as 99.9%.

On to `COC(=O)Nc1ccccc1SCc1ncon1` [Example 20, 3-(2-methoxycarbonylaminophenylthiomethyl)-1,2,4-oxadiazole], for which the inhibition in vivo at 100 mg/kg was 97.5%.

For the molecule `O=C(Nc1ccccc1SCc1ncon1)OCc1ccccc1` [Example 21, 3-(2-Benzyloxycarbonylaminophenylthiomethyl)-1,2,4-oxadiazole], the inhibition in vivo at 10 mg/kg came to 68% and at 100 mg/kg the inhibition in vivo was 100%.

With `CC(=O)Nc1ccccc1SCc1ncon1` [Example 23, 3-(2-Acetylaminophenylthiomethyl)-1,2,4-oxadiazole], the inhibition in vivo at 10 mg/kg is 38% and 100 mg/kg produced 100% inhibition in vivo.

For `O=C(Nc1ccccc1SCc1ncon1)c1ccc(Cl)cc1` [Example 25, 3-[2-(4-chlorobenzamido)phenylthiomethyl]-1,2,4-oxadiazole], 10 mg/kg produced 64% inhibition in vivo and the inhibition in vivo at 100 mg/kg came out at 99.9%.

`O=C(Nc1ccccc1SCc1ncon1)c1ccccc1` [Example 26, 3-(2-Benzamidophenythiomethyl)-1,2,4-oxadiazole] gave an inhibition in vivo at 10 mg/kg of 52%.

Molecule `COc1ccc(C(=O)Nc2ccccc2SCc2ncon2)cc1` [Example 27, 3-[2-(4-Methoxybenzamido)phenylthiomethyl]-1,2,4-oxadiazole] returned an inhibition in vivo at 10 mg/kg of 73% and an inhibition in vivo at 100 mg/kg of 85%.

On to `CC(C)(C)C(=O)Nc1ccccc1SCc1ncon1` [Example 28, 3-(2-Trimethylacetamidophenylthiomethyl)1,2,4-oxadiazole], for which 100 mg/kg produced 53% inhibition in vivo.

Consider `O=C(Nc1ccccc1SCc1ncon1)c1ccco1` [Example 29, 3-(2-Furanoylaminophenylthiomethyl)1,2,4-oxadiazole], for which at 10 mg/kg the inhibition in vivo was 47% and the inhibition in vivo at 100 mg/kg came out at 100%.

Take `O=C(Nc1ccccc1SCc1ncon1)c1cccs1` [Example 30, 3-(Thiophene-2-carbonylaminophenylthiomethyl)1,2,4-oxadiazole]: the inhibition in vivo at 10 mg/kg was 59%.

In turn, `CS(=O)(=O)Nc1ccccc1SCc1ncon1` [Example 31, 3-(2-Methylsulphonamidophenylthiomethyl)-1,2,4-oxadiazole] returned an inhibition in vivo at 10 mg/kg of 33%.

Molecule `Cc1ccc(S(=O)(=O)Nc2ccccc2SCc2ncon2)cc1` [Example 32, 3-[2-(p-toluenesulphonamido)phenylthiomethyl]-1,2,4-oxadiazole] returned an inhibition in vivo at 100 mg/kg of 43%.

As to `S=C(Nc1ccccc1)Nc1ccccc1SCc1ncon1` [Example 33, N-[2-(1,2,4-oxadiazol-3-yl-methylthio)phenyl]-N^1-phenylthiourea], the inhibition in vivo at 10 mg/kg turned out to be 10%.

On to `O=C(Nc1ccccc1SCc1ncon1)NC1CCCCC1` [Example 35], for which at 100 mg/kg the inhibition in vivo was 39%.

In the case of `O=[N+]([O-])c1ccc(Oc2ccc(NC(=S)Nc3ccccc3SCc3ncon3)cc2)cc1` [Example 36, N-[2-(1,2,4-oxadiazol-3-yl-methylthio)phenyl]-N^1-4-(4-nitrophenyloxy)phenyl thiourea], the inhibition in vivo at 100 mg/kg amounted to 19%.

As for `O=[N+]([O-])c1ccc(Sc2ccc(NC(=S)Nc3ccccc3SCc3ncon3)cc2)cc1` [Example 37, N-[2-(1,2,4-oxadiazol-3-yl-methylthio)phenyl]-N^1-4-(4-nitrophenylthio)phenyl thiourea], 10 mg/kg produced 50% inhibition in vivo and testing at 100 mg/kg gave an inhibition in vivo of 22%.

On to `COc1ccc(C=Nc2ccccc2SCc2ncon2)cc1OC` [Example 38, 3-[2-(3,4-Dimethoxybenzylideneamino)phenylthiomethyl]-1,2,4-oxadiazole], for which the inhibition in vivo at 10 mg/kg was found to be 9% and the inhibition in vivo at 100 mg/kg was found to be 36%.

In turn, `COc1ccc(C=Nc2ccccc2SCc2ncon2)cc1` [Example 39, 3-[2-(4-Methoxybenzylideneamino)phenylthiomethyl]-1,2,4-oxadiazole] had an inhibition in vivo at 10 mg/kg of 73% and an inhibition in vivo at 100 mg/kg of 99.7%.

As for `Clc1ccccc1C=Nc1ccccc1SCc1ncon1` [Example 40, 3-[2-(2-Chlorobenzylideneamino)phenylthiomethyl]-1,2,4-oxadiazole], the inhibition in vivo at 10 mg/kg came to 82% and the inhibition in vivo at 100 mg/kg came to 100%.

As to `COc1cc(C=Nc2ccccc2SCc2ncon2)cc(OC)c1OC` [Example 41, 3-[2-(3,4,5-Trimethoxybenzylideneamino)phenylthiomethyl]-1,2,4-oxadiazole], the inhibition in vivo at 100 mg/kg amounted to 100%.

`Clc1ccc(CNc2ccccc2SCc2ncon2)cc1` [Example 42, 3-[2-(4-Chlorobenzylamino)phenylthiomethyl]1,2,4-oxadiazole] returned an inhibition in vivo at 10 mg/kg of 93% and an inhibition in vivo at 100 mg/kg of 100%.

`OC(CNc1ccccc1SCc1ncon1)COc1ccccc1` (stereo not shown) [Example 43, 2-Hydroxy-1-[2-(1,2,4-oxadiazol-3-ylmethylthio)anilino]-3-phenoxypropane] returned an inhibition in vivo at 10 mg/kg of 24% and an inhibition in vivo at 100 mg/kg of 60%.

Molecule `O=[N+]([O-])c1ccccc1SNc1ccccc1SCc1ncon1` [Example 44, 3-[2-(2-Nitrophenylsulphenylamino)phenyl]thiomethyl-1,2,4-oxadiazole] yielded an inhibition in vivo at 100 mg/kg of 27%.

`CCN(CC)c1ccccc1SCc1ncon1` [Example 45, 3-(2-Diethylaminophenylthiomethyl)-1,2,4-oxadiazole] gave an inhibition in vivo at 10 mg/kg of 84% and an inhibition in vivo at 100 mg/kg of 100%.

`CCN(C)c1ccccc1SCc1ncon1` [Example 46, 3-[2-(N-ethyl-N-methyl)aminophenylthiomethyl]1,2,4-oxadiazole]: at 100 mg/kg the inhibition in vivo was 98%.

`CN(C)c1ccccc1SCc1noc(CSc2ccc(Cl)cc2)n1` [Example 48, 5-(4-chlorophenylthiomethyl)-3-(2-dimethylaminophenylthiomethyl)-1,2,4-oxadiazole] came in with an inhibition in vivo at 10 mg/kg of 22% and an inhibition in vivo at 100 mg/kg of 88%.

Consider `Nc1ccccc1SCC1=NOCN1` [Example 51, 3-(2-Aminophenylthiomethyl)-4,5-dihydro-1,2,4-oxadiazole], for which testing at 10 mg/kg gave an inhibition in vivo of 63%.

The record behind these values is patent US4294843A, “Anti-protozoal oxadiazole derivatives” (Burroughs Wellcome Co., priority 1978, dated 1981).
